This is an account of results in patent US7319147B2, “Porphyrins and related compounds” (Bioscience Technology Investment Holdings Limited, priority 2000, dated 2008).

Structures are written as SMILES.

Data set [1] deals with syngeneic colo26 tumour. Particulars: m-THPP dose of 1.61 μmol/kg; light at 652 nm; Berenbaum et al. 1993; cited from earlier work.
Data set [2] can be described thus: Normal tissue damage / cutaneous photosensitivity by ear swelling after irradiation. The note with it: 0.88 μmol/kg; same light dose 24 h after drug injection. The format is in vivo, mice. The method, then:
In a separate group of mice, the normal tissue damage was assessed by irradiating one ear with 40 Jcm^−2 of broad spectrum white light delivered using a fibre bundle from the xenon light source. The incident power at the ear surface was 638 mWcm^−2 and light was applied for 63 s. Animal ears were irradiated with light 24 h after administration of N-Me-NC-m-THPP. The opposing ear served as a control. The response was assessed twenty-four hours after irradiation by measuring the ear thickness at three sites on the upper third of the ear using a fixed-force micrometer with a vernier-interpolated resolution of 2 μm and an accuracy of 10 μm (Neill instruments).

In the case of `Oc1cccc(-c2c3nc(c(-c4cccc(O)c4)c4ccc([nH]4)c(-c4cccc(O)c4)c4nc(c(-c5cccc(O)c5)c5ccc2[nH]5)C=C4)C=C3)c1` [m-THPP], the “tumour necrosis (literature)” value in data set [1] is 0.14 mm.
Regarding `Oc1cccc(-c2c3nc(c(-c4cccc(O)c4)c4ccc([nH]4)c(-c4cccc(O)c4)c4nc(c(-c5cccc(O)c5)c5ccc2[nH]5)CC4)C=C3)c1` [m-THPC, tetra(3-hydroxyphenyl)dihydroporphyrin], in data set [2], the “Ear Swelling (irradiated − control; μm)” value was 41 μm.
